Where “and” joins values, the source holds several entries; their conditions need not be identical. Equal values may be shown once. Inconclusive results and toxic doses are left out. Cut-off read from the data, not from the text of the source: active = T/C of 150% or more; inactive = T/C below 125%.
Test system: L1210 leukemia ip in BDF1 mice, survival T/C
Experiment: NCI In Vivo Anticancer Drug Screen. Data for tumor model L1210 Leukemia (intraperitoneal) in B6D2F1 (BDF1) mice
Conditions: endpoint: mean survival time, higher = longer survival
How it was run: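 Tumor cells were implanted, animals were treated, and survival was followed. The result divides the treated measurement by the vehicle-control measurement.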

[1] = dose: 100.0 mg/kg/injection, schedule: Q04DX003 (ip), vehicle: Klucel (hydroxypropylcellulose) (HPC)
[2] = dose: 200.0 mg/kg/injection, schedule: Q04DX003 (ip), vehicle: Klucel (hydroxypropylcellulose) (HPC)
[3] = dose: 400.0 mg/kg/injection, schedule: Q04DX003 (ip), vehicle: Klucel (hydroxypropylcellulose) (HPC)
[4] = dose: 100.0 mg/kg/injection, schedule: Q01DX001 (ip), vehicle: carboxymethylcellulose (CMC)
[5] = dose: 200.0 mg/kg/injection, schedule: Q01DX001 (ip), vehicle: carboxymethylcellulose (CMC)
[6] = dose: 400.0 mg/kg/injection, schedule: Q01DX001 (ip), vehicle: carboxymethylcellulose (CMC)
[7] = dose: 100.0 mg/kg/injection, schedule: Q04DX002 (ip), vehicle: Klucel (hydroxypropylcellulose) (HPC)
[8] = dose: 200.0 mg/kg/injection, schedule: Q04DX002 (ip), vehicle: Klucel (hydroxypropylcellulose) (HPC)
[9] = dose: 400.0 mg/kg/injection, schedule: Q04DX002 (ip), vehicle: Klucel (hydroxypropylcellulose) (HPC)
[10] = dose: 100.0 mg/kg/injection, schedule: Q01DX009 (ip), vehicle: acetone
[11] = dose: 100.0 mg/kg/injection, schedule: Q04DX003 (ip), vehicle: saline
[12] = dose: 200.0 mg/kg/injection, schedule: Q04DX003 (ip), vehicle: saline
[13] = dose: 400.0 mg/kg/injection, schedule: Q04DX003 (ip), vehicle: saline
[14] = dose: 100.0 mg/kg/injection, schedule: Q04DX003 (ip), vehicle: acetone

Measured: T/C

Clc1ccc2c(c1)Cc1cc(Cl)cc(Cl)c1-2
inactive: [1] 98 % of control | [2] 100 % of control | [3] 96 % of control

COP(=O)(C(OC(=O)C(C)(C)C)=C(C)C)N(C)C (centres undefined)
inactive: dose: 100.0 mg/kg/injection, schedule: Q04DX003 (ip), vehicle: saline with Tween-80 97 % of control | dose: 200.0 mg/kg/injection, schedule: Q04DX003 (ip), vehicle: saline with Tween-80 96 % of control | dose: 400.0 mg/kg/injection, schedule: Q04DX003 (ip), vehicle: saline with Tween-80 96 % of control

O=COCCN(C=O)c1ccc(C(=O)O)cc1
inactive: dose: 75.0 mg/kg/injection, schedule: Q01DX009 (ip), vehicle: Klucel (hydroxypropylcellulose) (HPC) 92 % of control | dose: 150.0 mg/kg/injection, schedule: Q01DX009 (ip), vehicle: Klucel (hydroxypropylcellulose) (HPC) 87 % of control | dose: 300.0 mg/kg/injection, schedule: Q01DX009 (ip), vehicle: Klucel (hydroxypropylcellulose) (HPC) 88 % of control

C/C(=N/NC(=O)CC#N)c1ccccc1
inactive: dose: 100.0 mg/kg/injection, schedule: Q04DX002 (ip), vehicle: saline with Tween-80 101 % of control | dose: 200.0 mg/kg/injection, schedule: Q04DX002 (ip), vehicle: saline with Tween-80 104 % of control | dose: 400.0 mg/kg/injection, schedule: Q04DX002 (ip), vehicle: saline with Tween-80 95 % of control

O=C(CCc1ccncc1)c1ccccc1
inactive: dose: 50.0 mg/kg/injection, schedule: Q01DX001 (ip), vehicle: carboxymethylcellulose (CMC) 114 % of control | [4] 102 % of control | [5] 102 % of control | [6] 102 % of control

Cc1cc(Cl)cc(C)c1O
inactive: dose: 75.0 mg/kg/injection, schedule: Q04DX003 (ip), vehicle: saline 114 % of control | dose: 150.0 mg/kg/injection, schedule: Q04DX003 (ip), vehicle: saline 100 % of control | dose: 300.0 mg/kg/injection, schedule: Q04DX003 (ip), vehicle: saline 112 % of control

COc1cc2c(cc1OC)C(Cc1ccc([N+](=O)[O-])cc1)=[N+](C)CC2
inactive: [4] 103 % of control | [5] 105 % of control | [6] 108 % of control

N/N=C(/CC1C(=O)Nc2ccccc21)c1ccccc1 (centres undefined)
inactive: [7] 94 % of control | [8] 108 % of control | [9] 91 % of control

Clc1ccnc2[nH]ncc12
inactive: dose: 60.0 mg/kg/injection, schedule: Q01DX001 (ip), vehicle: other 97 % of control | dose: 120.0 mg/kg/injection, schedule: Q01DX001 (ip), vehicle: other 105 % of control

C[C@]12C[C@H](O)[C@H]3[C@@H](CCC4=CC(=O)CC[C@@]43C)[C@@H]1CC[C@@H]2C(=O)CF
inactive: dose: 50.0 mg/kg/injection, schedule: Q01DX Z (sc), vehicle: steriod suspending solution 95 % of control | dose: 250.0 mg/kg/injection, schedule: Q01DX Z (sc), vehicle: steriod suspending solution 102 % of control | dose: 500.0 mg/kg/injection, schedule: Q01DX Z (sc), vehicle: steriod suspending solution 98 % of control

C=C1CC(c2ccccc2)(c2cccs2)OC1=O (centres undefined)
inactive: [1] 98 % of control | [2] 96 % of control

O=[N+]([O-])c1ccccc1C(=Nc1ccccc1)c1c(O)cc(O)cc1O
inactive: [10] 94 % of control | [11] 96 % of control | dose: 200.0 mg/kg/injection, schedule: Q01DX009 (ip), vehicle: acetone 100 % of control | [12] 101 % of control | [13] 98 % of control

O=[N+]([O-])c1cc(Cl)c(Cl)c([N+](=O)[O-])c1O
inactive: dose: 25.0 mg/kg/injection, schedule: Q01DX009 (ip), vehicle: acetone 92 % of control | dose: 50.0 mg/kg/injection, schedule: Q01DX009 (ip), vehicle: acetone 97 % of control | dose: 50.0 mg/kg/injection, schedule: Q04DX003 (ip), vehicle: acetone 95 % of control | dose: 100.0 mg/kg/injection, schedule: Q01DX001 (ip), vehicle: saline 95 % of control | [10] 95 % of control | [14] 89 % of control | dose: 150.0 mg/kg/injection, schedule: Q01DX009 (ip), vehicle: acetone 100 % of control | dose: 200.0 mg/kg/injection, schedule: Q01DX001 (ip), vehicle: saline 93 % of control

CC1CCCCN1Cc1ccccc1COC(=O)c1ccc([N+](=O)[O-])cc1 (centres undefined)
inactive: [7] 90 % of control | [8] 104 % of control | [9] 114 % of control

CCCCCCCCCCCC(=O)NC(=S)Nc1ccccc1F
inactive: [1] 95 % of control | [2] 87 % of control

CCC1CCCC(C(=O)O)N1 (centres undefined)
inactive: dose: 100.0 mg/kg/injection, schedule: Q01DX009 (ip), vehicle: saline 101 % of control | [11] 95 % of control | dose: 200.0 mg/kg/injection, schedule: Q01DX009 (ip), vehicle: saline 95 % of control | [12] 95 % of control | dose: 400.0 mg/kg/injection, schedule: Q01DX009 (ip), vehicle: saline 100 % of control | [13] 105 % of control

CCOC(=O)c1c[nH]c2cc(OC)ccc2c1=O
inactive: dose: 100.0 mg/kg/injection, schedule: Q01DX009 (ip), vehicle: saline with Tween-80 92 % of control | dose: 200.0 mg/kg/injection, schedule: Q01DX009 (ip), vehicle: saline with Tween-80 93 % of control

O=S(=O)(/C=C/c1ccccc1)Oc1ccc(-c2ccccc2)cc1
inactive: dose: 100.0 mg/kg/injection, schedule: Q01DX001 (ip), vehicle: acetone 104 % of control | [10] 90 % of control | [14] 97 % of control | dose: 200.0 mg/kg/injection, schedule: Q01DX001 (ip), vehicle: acetone 98 % of control | dose: 200.0 mg/kg/injection, schedule: Q04DX003 (ip), vehicle: acetone 91 % of control | dose: 400.0 mg/kg/injection, schedule: Q01DX001 (ip), vehicle: acetone 98 % of control | dose: 400.0 mg/kg/injection, schedule: Q01DX009 (ip), vehicle: acetone 90 % of control | dose: 400.0 mg/kg/injection, schedule: Q04DX003 (ip), vehicle: acetone 91 % of control

CC1=Nc2c([nH]cnc2=S)NN1
inactive: dose: 6.25 mg/kg/injection, schedule: Q01DX009 (ip), vehicle: saline with Tween-80 94 % of control | dose: 6.25 mg/kg/injection, schedule: Q04DX003 (ip), vehicle: saline with Tween-80 102 % of control | dose: 12.5 mg/kg/injection, schedule: Q01DX001 (ip), vehicle: saline with Tween-80 87 % of control | dose: 12.5 mg/kg/injection, schedule: Q01DX009 (ip), vehicle: saline with Tween-80 91 % of control | dose: 12.5 mg/kg/injection, schedule: Q04DX003 (ip), vehicle: saline with Tween-80 98 % of control | dose: 25.0 mg/kg/injection, schedule: Q01DX001 (ip), vehicle: saline with Tween-80 102 % of control | dose: 25.0 mg/kg/injection, schedule: Q04DX003 (ip), vehicle: saline with Tween-80 100 % of control

CN(C)c1ccc(/C=C\c2cc(/C=C/c3ccc(N(C)C)cc3)c([N+](=O)[O-])cc2[N+](=O)[O-])cc1
inactive: dose: 75.0 mg/kg/injection, schedule: Q01DX001 (ip), vehicle: saline 98 % of control and 89 % of control | dose: 150.0 mg/kg/injection, schedule: Q01DX001 (ip), vehicle: saline 86 % of control | dose: 300.0 mg/kg/injection, schedule: Q01DX001 (ip), vehicle: saline 95 % of control and 101 % of control

Cc1cc(Cc2ccccc2)n[nH]1
inactive: dose: 100.0 mg/kg/injection, schedule: Q01DX001 (ip), vehicle: Klucel (hydroxypropylcellulose) (HPC) 107 % of control | dose: 200.0 mg/kg/injection, schedule: Q01DX001 (ip), vehicle: Klucel (hydroxypropylcellulose) (HPC) 102 % of control | dose: 400.0 mg/kg/injection, schedule: Q01DX001 (ip), vehicle: Klucel (hydroxypropylcellulose) (HPC) 108 % of control

c1ccc(-c2c[nH]c(-c3ccccc3)c2)cc1
inactive: [1] 124 % of control | dose: 200.0 mg/kg/injection, schedule: Q01DX001 (ip), vehicle: steriod suspending solution 103 % of control | [2] 100 % of control | dose: 400.0 mg/kg/injection, schedule: Q01DX001 (ip), vehicle: steriod suspending solution 103 % of control | [3] 94 % of control

O=C1N(CCO)CNC1(c1ccccc1)c1ccccc1
inactive: dose: 100.0 mg/kg/injection, schedule: Q01DX001 (ip), vehicle: saline with Tween-80 102 % of control | dose: 200.0 mg/kg/injection, schedule: Q01DX001 (ip), vehicle: saline with Tween-80 98 % of control

Cc1ccc(C(=O)OCc2ccccc2CN2CCOCC2)cc1
inactive: [7] 100 % of control | [8] 103 % of control | [9] 92 % of control

Source: PubChem BioAssay AID248 (DTP/NCI, 2004)
